Measurements published in a melting point compilation (Tetko et al.; mined from patent text by program, amines drawn as free bases though some values may be those of a salt).

SMILES | melting point [°C]
FC(F)(F)c1cc(Cl)c(-c2nc(C(F)(F)F)c[nH]2)c(Cl)c1 | 213 to 215
COc1ccc(OCC(=O)O)c2c(=O)c3ccccc3sc12 | 223 to 225
CN1CCC(c2c[nH]c3ccc(NC(=O)c4ccoc4)nc23)CC1 | 105 to 108
CSc1ccc2c(c1)C(=O)c1cc3ccccc3cc1C2=O | 195 to 196
C#CCCCC(=O)c1nc(C(C)(C)C)c(O)c(C(C)(C)C)n1 | 64 to 66
COC(=O)C1=C(C)NC(C)=NC1c1ccccc1Cl (stereo unspecified) | 225 to 227
COc1cc(OCC(=O)O)cc(C)c1SCc1sc(-c2ccc(C(F)(F)F)cc2)nc1C | 164 to 165
CCOc1ccc(CCNC(=O)C(F)(F)F)cc1S(=O)(=O)N=CN(C)C | 145
O=C(CNc1ccccc1)OC1CCCCC1 | 50
NC(=O)NC(=O)NCc1ccc(CNC(=O)[C@@H](CCCNC(N)=N[N+](=O)[O-])NC(=O)C(c2ccccc2)c2ccccc2)cc1 | 214 to 218
CS(=O)(=O)Nc1ccccc1OC1CCCCC1=O (stereo unspecified) | 104 to 106
O=[N+]([O-])c1cc(Cl)c(Cl)cc1N[C@@H]1C[C@H](CO)[C@@H](O)[C@H]1O | 179 to 181
Cc1c(O)cc2c(c1C)CCC2(C)C | 117 to 118
Oc1ccc(OCCOc2ccccc2)cc1 | 156
O=C(NC1CCN(CCc2ccncc2)CC1)c1ccccc1 | 193 to 195
COc1cc(C)cc2c1C(C)(C)CCC2(C)C | 49 to 50
COc1cccc2c1[nH]c1c(C(=O)O)cccc12 | 252
CCOC(=O)CC(=O)c1cc(F)c(Br)cc1F | 51 to 53
COC(=O)CCNCC1CC2c3cc(C(C)(C)C)cc4[nH]cc(c34)CC2N(C)C1 (stereo unspecified) | 153 to 157
O=C(NCc1ccc(Cl)cc1)c1cnc2sc(C#CCCO)cc2c1O | 242 to 246
C[C@H]1C(=O)C[C@@H]2C[C@H]1OO[C@]2(C)/C=C\c1ccc(Cl)c(Cl)c1 | 135
COC(C)n1cc(C2=C(c3cn(C(C)OC)c4ccccc34)C(=O)NC2=O)c2ccccc21 (stereo unspecified) | 222 to 224
Nc1nc2ccccc2c2c1ncn2CCNC(=O)CCc1ccccc1 | 254 to 256
CCCCCCOc1ccc(N=C(NC#N)NCCC(C)(C)C)cc1 | 183 to 184
COC(=O)c1cc(-c2ccc(OCc3cccnc3)cc2O[C@H](CCC(=O)O)c2ccccc2C)n[nH]1 | 155 to 156
CC(=O)C(=NNc1ccccc1)C(N)=O | 146 to 147
CC=Cc1nc2cc3c(cc2[nH]1)NC(=O)C3(C)C | 252 to 254

SMILES | melting point [°C]
CC(=O)c1cccc2cc3ccccc3cc12 | 106
O=C1c2c(F)ccc(F)c2C(=O)N1CCN1CCC(c2noc3cc(F)ccc23)CC1 | 144 to 145
CCN1C(=O)C(C)=C2C[C@@]3(C)C(=C[C@@H](OC)[C@H](O)[C@@H]3C)C=C21 | 151 to 154
Cn1cc(SC(F)(F)F)c(N)n1 | 138 to 140
SC1=Nc2ccccc2SN1 | 198 to 199
Cc1ncccc1Oc1ccc(C(=N)Nc2cc(Cl)cc(NC(=O)C=Cc3ccccc3Cl)c2)cc1 | 105 to 107
Cc1cc(C(=O)OC(C)(C)C)cc(C(=O)OC(C)(C)C)c1 | 86.5 to 87.5
CCOC(=O)CSc1nc(Cl)cc(Nc2ccc(Cl)cc2)n1 | 109 to 112
CCOC(=O)C(=Cc1cccn2c([N+](=O)[O-])c(C)nc12)N=[N+]=[N-] | 196 to 198
O=C1c2ccccc2C(=O)N1c1ncnc2[nH]ccc12 | 276 to 277
COCc1c(C(=O)NC(C)C)ncc2[nH]c3cccc(Oc4ccc(Cl)cc4)c3c12 | 255
NC(=O)CC1=C(n2nc(-c3c(-c4ccccc4)nn4ccccc34)ccc2=O)CCCC1 | 204 to 205
O=Cc1c(-c2ccccc2Br)ccc2c1OCO2 | 89 to 91
Cc1ccc2oc(=O)c(-c3cc(O)c(O)c(C#N)c3)nc2c1 | 278 to 280
O=C1Nc2ccc(F)cc2C1CCCCN1CCN(c2ccccn2)CC1 (stereo unspecified) | 132 to 134
CCCO[Si](C)(CCN=C(O)C1(C)C(C)(C(=O)O)C(C)(C(=O)O)C1(C)C(O)=NCC[Si](C)(OCCC)OCCC)OCCC (stereo unspecified) | 151
COc1ccc2nc(-c3ccc(OC)c(F)c3)cc(C#N)c2c1 | 189 to 190
N#Cc1ccc(NC(=O)c2cc3cccc(S(=O)(=O)c4ccccc4)c3[nH]2)c(-c2nnn[nH]2)c1 | 293 to 295
CCOC(=O)Nc1ccc2c(c1)C(c1ccccc1Cl)SCCC(=O)N2 (stereo unspecified) | 229 to 231
CN(C)CCCNS(=O)(=O)c1cccc([N+](=O)[O-])c1 | 84 to 87
COc1cc2c(cc1OC)CN(CCCc1ccc(NC(=O)c3cccc4c(=O)c5cccc(F)c5[nH]c34)cc1)CC2 | 166
Cc1nc(OS(=O)(=O)C(F)(F)F)c([N+](=O)[O-])c(NCC(C)(C)O)c1C | 79 to 80
CC(CCCC(C)C1CCC2C3CC=C4CC(O)CCC4(C)C3CCC12C)CO[Si](C)(C)C(C)(C)C (stereo unspecified) | 93.5
CC(C)(C)NNC(=O)c1ccccc1CO | 116 to 118
Cc1cccc(CO)c1CNc1cc(C(=O)N(C)C)cc2c1nc(C)n2C | 197 to 198
Cn1cc(-c2cccc(N3CCc4c(cc5n4CCCC5)C3=O)c2CO)nc(Nc2ccc3c(c2)CNCC3)c1=O | 218 to 220
CN(C)CCn1c(=O)c2ccc([N+](=O)[O-])cc2c2cnc3cc4c(cc3c21)OCO4 | 111 to 112

Next, values leading:

melting point [°C] | SMILES
261 to 262 | NS(=O)(=O)c1cc(C(=O)O)cc([N+](=O)[O-])c1Nc1ccccc1
202 to 203 | CC(=O)c1c(-c2ccccc2)[nH]c(-c2ccncc2)c1C
219 to 220 | CCCCc1ncc(/C=C/C=C/C(=O)O)n1Cc1ccccc1Cl
121 to 122 | COc1c(NC(=O)c2ccc(Br)cc2)ccc2cc(CN3CCCC3)cnc12
178 to 179 | N#Cc1ccc(-c2ccc(N3CC(CI)CC3=O)cc2)cc1 (stereo unspecified)
157 to 160 | Clc1c(-c2ccc(OCc3ccccc3)cc2)[nH]c2ccc(OCc3ccccc3)cc12
164 to 165 | CCc1nn2ccc3c(c2c1C(C)=O)CCO3
267 to 268 | COc1cc(-c2cnc3[nH]cc(C(=O)C45CC6CC(CC(C6)C4)C5)c3n2)cc(OC)c1OC
171 to 172 | CC(=O)Nc1ccc(CCCON2CCC(C(=O)c3nc4ccccc4s3)CC2)cc1
100 to 104 | CC1CC=C(c2ccc(C(C)C(=O)O)cc2)CC1 (stereo unspecified)
119 to 120 | NS(=O)(=O)c1cnc(S(=O)(=O)c2ccccc2)s1
139 to 141 | COc1ccc(C2CC(=O)N(C(=O)c3cncc(Br)c3)N2C)cc1OC1CCCC1 (stereo unspecified)
183 to 187 | CN1C(=O)CC[C@]2(C)c3ccc(-c4ccc5ncsc5c4)cc3CC[C@@H]12
70 to 72 | COc1ccc(C=C(C(C)=O)C(C)=O)cc1
234 to 235 | CC(=O)Nc1ccc(S(=O)(=O)O)c(NCC(=O)O)c1
99 to 100 | C#Cc1cccc(NC(=O)C(Cl)Cl)c1
218 to 219 | Cc1nc2c(N)nc3ccccc3c2n1CCCCC(=O)N1CCOCC1
82.1 to 83.4 | O=C(CCl)C1=NOC(c2c(F)cccc2F)C1 (stereo unspecified)
302 to 304 | O=C(O)c1ccc2c(c1)Sc1ccc(Cl)cc1C=C2
165 | Clc1cc2c(cc1Cn1c(Sc3ccccc3)nc(Br)c1Br)OCO2
176 to 178 | CN1OC(COc2ccccc2)CC1(Cn1ccnc1)c1ccc2ccccc2c1 (stereo unspecified)
105 to 107 | CNCc1nc(CSCCNC(=C[N+](=O)[O-])NC)cs1
236 to 238 | Nc1ccc(-c2ncccn2)cc1
152 to 154 | COc1ncccc1NC(=O)[C@H]1[C@H](c2ccccc2)C1(C)C (relative stereo)

melting point [°C] | SMILES
45 | O=C1c2ccc(OC(c3ccccc3)c3ccccc3)cc2OCC1Cc1cccnc1 (stereo unspecified)
143 to 146 | Cc1cccc2cc(C(=O)N(C)C)c(C=CNc3ccccc3)nc12
151 | Cc1cc(Cl)cc(C(=O)Nc2ccc(Cl)cn2)n1
212 | CC(C)(C)COc1ccc(-n2ncc(C(=O)O)c2Cl)cc1C#N
220 to 221 | O=C(N[C@H](Cc1ccc(F)cc1)[C@@H](O)c1ccc(C(F)(F)F)cc1)C1CCCCC1 (racemic)
140 to 141 | CC(C)(C)OC(=O)N[C@@H](Cc1ccccc1)[C@H](C#N)OC(=O)c1ccc(-c2ccccn2)cc1
158 to 165 | Cc1nc(N)nc(N)c1C=CC(C)c1ccc(Cl)cc1 (stereo unspecified)
227 | CC(CNc1c(C(=O)O)cccc1[N+](=O)[O-])NCc1ccccc1 (stereo unspecified)
147 to 149 | COC(=O)c1ccc2c(c1)c(Cc1ccc(C(=O)Cl)cc1OC)cn2C
119 | N#Cc1ccc2c(c1)CCC(c1ccccc1F)=C2CCO
118 to 119 | Clc1ccc(-c2ccccc2OCC2CO2)nn1 (stereo unspecified)
110 to 125 | COC(=O)c1ccc(CCC(C=Cc2ccc(O)c(OC)c2)=NO)o1
52 to 55 | Nc1ccc(C(=O)N2Cc3ccccc3Sc3ccccc32)cc1
196 to 197 | Nc1ccc(OC(F)(F)F)c(C(=O)O)c1
75 to 77 | COC(=O)[C@H](CSC(=O)[C@@H](C)c1ccc(CC(C)C)cc1)NC(C)=O
72 to 74 | CC(C)(C(=O)O)c1cccc(O[Si](C)(C)C(C)(C)C)c1
133 to 135 | Cn1c(C(F)(F)F)cc(=O)n(-c2cc(OS(=O)(=O)Cl)c(Cl)cc2F)c1=O
129 to 130 | CCOC(=O)c1conc1-c1ccc(Cl)c(Cl)c1
178 to 180 | COC(=O)c1c(F)cc(O)cc1F
106 to 107 | CON(C)C(=O)Nc1cc(C(C)(C)C)on1
230 | N=C(N)NCCCC(NC(=O)CCS)C(=O)O (stereo unspecified)
192 to 193 | COc1ccc(N2CCN(c3ccc(OC)nc3-c3ccc(N(C)C)cc3)CCC2=O)cc1
104 to 105 | CON=C(C(C)=NN=Cc1ccccc1C(=NOC)C(=O)OC)c1ccc(Cl)cc1
